Experimental data: patent US20130296347A1, “Compositions and Methods for Prophylaxis and Treatment of Addictions” (Omeros Corporation, priority 2007, published 2013)
“Also recorded” adds a separate entry of the source.

Tests used:
heavy tobacco smokers = assay: Pilot clinical study in heavy tobacco smokers; assay type: in vivo, human
Experimental: Data were recorded for two months, during which patients were seen by the physician every other week. Patients were instructed to record in a personal logbook the number of cigarettes per day and the time of the day smoking occurred. At the end of the study, the logbooks were returned to the clinical personnel who analyzed the data. […] During the first month of treatment, every two weeks, ACTH and cortisol levels were also monitored to evaluate HPA activation before and during treatment.

[1] = Young, Buckle et al. 1998; Breidert et al. 2002; cited from earlier work
[2] = test system: Marchigian Sardinian alcohol-preferring (msP) rats; assay: Subchronic (7 days) voluntary ethanol intake, 10% alcohol available 24 hours/day; assay type: in vivo, rat
Experimental: At the beginning of the experiments, msP rats were allowed free choice between water and 10% (v/v) alcohol 24 h/day for at least 15 days. The fluids were offered in graduated drinking tubes equipped with metallic drinking spouts. The position (to the right or left) of alcohol and water drinking tubes was changed daily to avoid the development of side preference. Water and food were available ad libitum, while alcohol access was either restricted to 2 hours/day (Examples 1 and 2) or was available 24 hours/day (Examples 3 and 4). Alcohol, water and food intakes were measured.
[…]. Before starting the treatment, rats were trained to gavage administration procedures for three days, during which they received vehicle (distilled water).
Alcohol, water and food intakes were monitored at 2, 8 and 24 hours. Fluids and food intakes were monitored for three additional days after the end of the drug treatment period.
[…]. According to a between-subject design, four groups of msP rats (N=9/group) were prepared as described in Example 3. […] […]. Alcohol, water and food intakes were monitored at 2, 8 and 24 hours. Fluids and food intakes were monitored for three additional days after the end of the drug treatment period.

Long Evans rats [3] = assay: Yohimbine-induced reinstatement of nicotine seeking; assay type: in vivo, rat; conditions: pioglitazone all doses tested (5.0, 10.0 and 30.0 mg/kg), 12 and 1 hour before test
Experimental: Stress and anxiety are major factors in resuming nicotine use in former abstinent users. […] Reinstatement experiments and relative drug treatments were performed every third day. Between reinstatements, extinction baseline was re-established.

msP rats = assay: Cue-induced reinstatement of alcohol seeking; assay type: in vivo, rat; conditions: pioglitazone 10.0, 30.0 mg/kg at 12 hours and 1 hour before test
Experimental: Cue-induced reinstatement of alcohol-seeking behaviour experimental procedures consisted of three phases: (1) conditioning phase; (2) extinction phase; and (3) reinstatement phase, as described below.
For the conditioning phase, at the completion of the fading procedure (see above), in 30 min daily sessions, animals were trained to discriminate between 10% alcohol and water. Beginning with self-administration training at the 10% alcohol concentration, discriminative stimuli (SD) predictive of alcohol versus water availability were presented during the alcohol and water self-administration sessions, respectively. The discriminative stimulus for alcohol consisted of the odour of an orange extract (S^+) whereas water availability (i.e. no reward) was signalled by an anise extract (S^−). The olfactory stimuli were generated by depositing six to eight drops of the respective extract into the bedding of the operant chamber. In addition, each lever-press resulting in delivery of alcohol was paired with illumination of the chamber's house light for 5 sec (CS^+). The corresponding cue during water sessions was a 5 second tone (70 dB) (CS). Concurrently with the presentation of these stimuli, a 5 sec. time-out period was in effect, during which responses were recorded but not reinforced. The olfactory stimuli serving as S^+ or S^− for alcohol availability were introduced one minute before extension of the levers and remained present throughout the 30-min. sessions. The bedding of the chamber was changed and bedding trays were cleaned between sessions. During the first three days of the conditioning phase, the rats were given alcohol sessions only. Subsequently, alcohol and water sessions were conducted in random order across training days, with the constraint that all rats received a total of 10 alcohol and 10 water sessions.
For the extinction phase, after the last conditioning day, rats were subjected to 30-min extinction sessions for 15 consecutive days. During this phase, sessions began by extension of the levers without presentation of the SD. […]

Long Evans rats [4] = assay: FR5 nicotine self-administration; assay type: in vivo, rat; conditions: pioglitazone 30 mg/kg OS 12 hours and 1 hour before session; p<0.05
Experimental: Bupropion hydrochloride (Sigma, Milan, Italy) was dissolved in saline. Nicotine tartrate (Sigma, Milan, Italy) was dissolved in isotonic saline at a concentration of 0.03 mg/0.1 ml free base. The pH of the nicotine solution was adjusted to 7 with dilute NaOH. Drug or vehicle solution was infused at a volume of 0.1 ml over 4 s.
Male Long Evans rats weighing between 180 and 200 g at the time of arrival in the lab were used. The rats were housed in groups of three in a humidity- and temperature-controlled (22° C.) vivarium on a 12 h:12 h reverse light/dark cycle (on, 17:00; off, 05:00) with ad libitum access to food and water. One week after arrival, the rats were subjected to surgery, and a silastic catheter was implanted into the right jugular vein.
After the successful completion of cocaine training, rats were allowed to self-administer nicotine at the 0.03 mg/kg/infusion dose by switching the delivery of cocaine for the delivery of a nicotine infusion. Nicotine self-administration training continued until stable baseline of responding was established (less than 20% variation for 3 consecutive days calculated for each single rat). At this point, drug testing began.
. […] A 3-day interval was allowed between drug testing. During these intervals, nicotine self-administration was continued to re-establish lever responses baseline.
Statistical significance was set at P<0.05

CD mice = assay: Tail-flick test, morphine-induced analgesic tolerance; assay type: in vivo, mouse; conditions: pioglitazone alone 10 or 30 mg/kg
Experimental: All procedures were conducted in adherence to the European Community Council Directive for Care and Use of Laboratory Animals.
Mice were divided into 6 groups. Group 1 (n=8) received drug vehicles (veh/veh). […] Animals were treated twice daily (between 9:00 and 10:00 a.m. and 9:00 and 10:00 p.m.).
Morphine hydrochloride was purchased from Salars (Milano, Italy). Morphine (30 mg/kg) was dissolved in NaCl […] and was injected intraperitoneally (IP) twice a day at the indicated doses in a volume of 0.2 ml per mice. […] It was dissolved in distilled water and was administered per o.s. at the doses of 10 mg/kg and 30 mg/kg in a volume of 0.6 ml per mice.
Two different tests were used to monitor analgesic responses. The tail-flick test was performed 45 min after the morning injection of morphine, and the tail-immersion test was performed 45 min after the evening injection of morphine.
For the tail-flick test, each mouse was gently restrained in a soft tissue pocket, and the tail (1 cm from the tip) was exposed to a hot light beam. Latency for tail-flick was measured with a 6 seconds cut-off time. For the tail-immersion test, each mouse was restrained in a soft tissue pocket, and the distal half of the tail dipped into a water bath set at 52 C°. Latency for removing the tail from the hot water was measured with a 10 seconds cut-off time.

CCc1ccc(CCOc2ccc(CC3SC(=O)NC3=O)cc2)nc1.Cl (stereo not shown) [pioglitazone]
weekly smoked cigarettes, pioglitazone versus varenicline (post hoc) (heavy tobacco smokers; human, in vivo): no significant differences
craving score (visual analogic craving scale) (heavy tobacco smokers; over treatment): highest reduction
STAI anxiety score (heavy tobacco smokers; over treatment weeks): significantly reduced
weekly smoked cigarettes compared to bupropione (post hoc) (heavy tobacco smokers; p<0.05): significant difference
subjects reaching complete abstinence (heavy tobacco smokers; pioglitazone 4 patients, varenicline 3 patients): One
crossing of the blood brain barrier compared with rosiglitazone [1]: crosses the blood brain barrier more easily
voluntary ethanol intake, overall ([2]; pioglitazone 10.0 or 30.0 mg/kg OS twice a day for 7 days): significantly reduced
ethanol intake starting from the 4th day of treatment ([2]; pioglitazone both doses (10 and 30 mg/kg)): significantly reduced
ethanol intake, onset of effect ([2]; pioglitazone highest dose (30 mg/kg), 7 days): appeared from the first day of treatment
yohimbine-induced reinstatement of nicotine seeking (Long Evans rats [3]): prevented; also recorded: significantly (p<0.001) decreased
cue-induced (conditioned) reinstatement of alcohol-seeking (msP rats): not significantly modified; also recorded: lack of effect
nicotine self-administration (Long Evans rats [4]): significantly reduced
analgesic responses (tail-flick) (CD mice): did not differ from controls
